Reference: patent US7858644B2, “EP4 receptor antagonists” (Asterand UK Limited, priority 2003, dated 2010)

What was measured:
human EP4 receptor = target: T1, human EP4 receptor (Homo sapiens, UniProt P35408); assay: Binding ability to human EP4 receptor ([3H]PGE2 displacement); settings: read-out: pKi EP4 (converted)
T1 construct: expressed in transfected cells
Experimental: Membranes were prepared from cells stably transfected with human EP receptor cDNA. In brief, cells were cultured to confluency, scraped from culture flasks, and centrifuged (800 g, 8 minutes, 4° C.). Cells were twice washed in ice cold homogenisation buffer containing 10 mMTris-HCl, 1 mM EDTA. 2Na, 250 mM sucrose, 1 mM PMSF, 0.3 mM indomethacin, pH 7.4, homogenised and re-centrifuged as before. The supernatant was stored on ice and pellets re-homogenised and re-spun. Supernatants were pooled and centrifuged at 40000 g, 10 minutes, 4° C. Resultant membrane pellets were stored at −80° C. until use.
Incubations were performed at suitable temperatures and for suitable times to allow equilibrium to be reached. Non-specific binding was determined in the presence of 10 uM PGE2. Bound and free radiolabel was separated by vacuum manifold filtration using appropriate wash buffers, and bound radiolabel was determined by scintillation counting. Constituents of each of the buffers are included in table 1 below.
This approach follows that set out in Kenakin, T. P., Pharmacologic analysis of drug receptor interaction. Raven Press, New York, 2nd edition.

human EP3 receptor = target: T2, human EP3 receptor (Homo sapiens, UniProt P43115); assay: Binding ability to human EP3 receptor ([3H]PGE2 displacement); settings: membranes from cells stably transfected with human EP receptor cDNA; [3H]PGE2 2.5 nM; Cheng-Prusoff from IC50; read-out: pKi EP3 (converted)
T2 construct: expressed in transfected cells
T2 sequence (P43115 1-390): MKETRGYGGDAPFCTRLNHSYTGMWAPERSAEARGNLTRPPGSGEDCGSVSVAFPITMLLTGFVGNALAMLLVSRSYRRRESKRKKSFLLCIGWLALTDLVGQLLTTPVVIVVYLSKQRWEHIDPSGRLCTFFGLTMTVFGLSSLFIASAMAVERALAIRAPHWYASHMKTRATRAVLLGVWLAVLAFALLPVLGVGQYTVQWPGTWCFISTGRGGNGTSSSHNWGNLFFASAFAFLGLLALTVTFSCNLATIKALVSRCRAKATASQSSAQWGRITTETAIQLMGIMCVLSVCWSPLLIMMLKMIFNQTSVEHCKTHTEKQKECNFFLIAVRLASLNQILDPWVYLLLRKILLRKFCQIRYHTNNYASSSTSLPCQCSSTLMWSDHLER
How it was run: (§1)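 Membranes from cells stably transfected with human EP receptor cDNA were incubated to equilibrium with [3H]PGE2 and compound (0.1 to 10 000 nM). Non-specific binding was defined with 10 uM PGE2; bound radioligand was separated by vacuum filtration and counted by scintillation.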

human EP2 receptor = target: T3, human EP2 receptor (Homo sapiens, UniProt P43116); assay: Binding ability to human EP2 receptor ([3H]PGE2 displacement); settings: read-out: pKi EP2 (converted)
T3 construct: expressed in transfected cells
T3 sequence (P43116 whole entry): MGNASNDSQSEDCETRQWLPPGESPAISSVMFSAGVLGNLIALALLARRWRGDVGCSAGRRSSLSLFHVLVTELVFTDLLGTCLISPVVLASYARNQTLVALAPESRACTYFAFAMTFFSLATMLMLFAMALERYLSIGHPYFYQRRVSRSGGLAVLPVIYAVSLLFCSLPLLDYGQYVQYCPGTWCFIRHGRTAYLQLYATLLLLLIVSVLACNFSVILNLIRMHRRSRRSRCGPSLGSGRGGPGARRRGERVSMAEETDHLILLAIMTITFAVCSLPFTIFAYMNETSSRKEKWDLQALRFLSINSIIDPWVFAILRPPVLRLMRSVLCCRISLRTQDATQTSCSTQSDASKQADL
How it was run: as §1

T1 sequence (P35408 whole entry): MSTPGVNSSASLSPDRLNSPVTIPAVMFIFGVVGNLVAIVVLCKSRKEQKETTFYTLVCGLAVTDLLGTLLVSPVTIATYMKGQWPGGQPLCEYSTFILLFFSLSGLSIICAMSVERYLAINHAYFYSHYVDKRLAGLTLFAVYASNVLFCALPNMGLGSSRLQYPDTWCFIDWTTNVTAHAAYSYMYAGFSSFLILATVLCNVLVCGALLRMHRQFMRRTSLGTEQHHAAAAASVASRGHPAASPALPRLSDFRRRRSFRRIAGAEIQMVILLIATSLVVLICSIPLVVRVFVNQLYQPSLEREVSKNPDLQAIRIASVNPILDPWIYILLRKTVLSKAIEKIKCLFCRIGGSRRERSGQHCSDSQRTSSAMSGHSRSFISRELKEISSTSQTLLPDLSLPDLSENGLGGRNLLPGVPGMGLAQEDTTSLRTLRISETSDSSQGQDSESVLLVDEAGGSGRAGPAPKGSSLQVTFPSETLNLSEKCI

| Ki (human EP4 receptor) [µM] | Ki (human EP3 receptor) [µM] | Ki (human EP2 receptor) [µM] | Compound |
| --- | --- | --- | --- |
| < 1 | > 10 | > 10 | Cc1oc(S(=O)(=O)NC(=O)c2cccnc2)cc1COc1ccc(-c2ccccc2)cc1 [Compound 68, 4-(Biphenyl-4-yloxymethyl)-5-methyl-furan-2-sulphonic acid (pyridine-3-carbonyl)-amide] |
| < 3.16 | > 10 | > 10 | Cc1oc(C(=O)O)cc1COc1ccc(-c2c(F)cccc2F)cc1 [Compound 100, 4-(2′,6′-Difluoro-biphenyl-4-yloxymethyl)-5-methyl-furan-2-carboxylic acid] |
| < 3.16 | > 10 | > 31.6 | COc1ccc(-c2ccc(OCc3cc(C(=O)O)oc3C)cn2)cc1 [Compound 56, 4-[6-(4-Methoxy-phenyl)-pyridin-3-yloxymethyl]-5-methyl-furan-2-carboxylic acid] |
| < 3.16 | > 10 | > 3.16 | O=C(O)c1cc(COc2ccc3c(c2)oc2ccccc23)co1 [Compound 81, 4-(Dibenzofuran-3-yloxymethyl)-furan-2-carboxylic acid] |
| < 1 | > 10 | > 10 | Cc1oc(C(=O)O)cc1COc1ccc(-c2ccc(F)cc2)cc1 [Compound 118, 4-(4′-Fluoro-biphenyl-4-yloxymethyl)-5-methyl-furan-2-carboxylic acid] |
| < 0.316 | > 10 | > 10 | COc1ccc(-c2ccc(OCc3cc(C(=O)O)oc3C(F)(F)F)cc2)cc1 [Compound 94, 4-(4′-Methoxy-biphenyl-4-yloxymethyl)-5-trifluoromethyl-furan-2-carboxylic acid] |
| < 0.1 | > 10 | > 10 | COc1ccc(-c2ccc(OCc3cc(CCC(=O)NS(=O)(=O)c4ccccc4)oc3C)cc2)cc1 [Compound 40, N-{3-[4-(4′-Methoxy-biphenyl-4-yloxymethyl)-5-methyl-furan-2-yl]-propionyl}-benzene sulfonamide] |
| < 0.1 | > 10 | > 10 | COc1ccc(-c2ccc(OCc3cc(C(=O)NS(=O)(=O)c4c(C)noc4C)oc3C)cc2)c(OC)c1 [Compound 142, 3,5-Dimethyl-isoxazole-4-sulphonic acid [4-(2′,4′-dimethoxy-biphenyl-4-yloxymethyl)-5-methyl-furan-2-carbonyl]-amide] |
| < 3.16 | > 10 | > 3.16 | Cc1oc(C(=O)O)cc1COc1ccc(-c2ccccc2C(F)(F)F)cc1 [Compound 102, 5-Methyl-4-(2′-trifluoromethyl-biphenyl-4-yloxymethyl)-furan-2-carboxylic acid] |
| < 0.316 | > 10 | > 10 | Cc1oc(C(=O)O)cc1CN(C)c1ccc(-c2ccc(OC(F)F)cc2)cc1 [Compound 176, 4-{[(4′-Difluoromethoxy-biphenyl-4-yl)-methyl-amino]-methyl}-5-methyl-furan-2-carboxylic acid] |
| < 10 | > 10 | > 10 | Cc1ccccc1S(=O)(=O)NC(=O)c1cc(C[S+]([O-])c2ccc(-c3ccc(OC(F)F)cc3)cc2)c(C)o1 (stereo not drawn) [Compound 156, N-[4-(4′-Difluoromethoxy-biphenyl-4-ylsulphinylmethyl)-5-methyl-furan-2-carbonyl]-2-methyl-benzenesulphonamide] |
| < 0.316 | > 10 | > 10 | COc1ccc(-c2ccc(NCc3cc(C(=O)NS(=O)(=O)c4ccccc4C)oc3C)cc2)nc1 [Compound 167, N-(4-{[4-(5-Methoxy-pyridin-2-yl)-phenylamino]-methyl}-5-methyl-furan-2-carbonyl)-2-methyl-benzenesulphonamide] |
| < 1 | > 10 | > 3.16 | Cc1oc(CCC(=O)NS(=O)(=O)c2ccccc2)cc1COc1ccc(-c2ccccc2)cc1 [Compound 38, N-{3-[4-(Biphenyl-4-yloxymethyl)-5-methyl-furan-2-yl]-propionyl}-benzene sulfonamide] |
| < 0.1 | > 10 | > 10 | COc1ccc(-c2ccc(OCc3cc(CCC(=O)O)oc3C)cc2)cc1 [Compound 39, 3-[4-(4′-Methoxy-biphenyl-4-yloxymethyl)-5-methyl-furan-2-yl]-propionic acid] |
| < 0.01 | > 10 | > 10 | Cc1oc(C(=O)NS(=O)(=O)c2ccccc2)cc1CNc1ccc(-c2ccc(OC(F)F)cc2)cc1 [Compound 172, N-{4-[(4′-Difluoromethoxy-biphenyl-4-ylamino)-methyl]-5-methyl-furan-2-carbonyl}-benzenesulphonamide] |
| < 1 | > 10 | > 10 | COc1ccc(-c2ccc(OCc3cc(C(=O)O)oc3C(C)C)cc2)cc1 [Compound 86, 5-Isopropyl-4-(4′-methoxy-biphenyl-4-yloxymethyl)-furan-2-carboxylic acid] |
| < 0.316 | > 10 | > 10 | COc1ccc(-c2ccc(OCc3cc(C(=O)NS(=O)(=O)c4ccccc4)oc3C)cc2)c(OC)c1 [Compound 141, N-[4-(2′,4′-Dimethoxy-biphenyl-4-yloxymethyl)-5-methyl-furan-2-carbonyl]-benzenesulphonamide] |
| < 3.16 | > 10 | > 10 | COc1ccc(-c2ccc(OCc3cc(C(=O)O)oc3C)cc2)c(OC)c1 [Compound 140, 4-(2′,4′-Dimethoxy-biphenyl-4-yloxymethyl)-5-methyl-furan-2-carboxylic acid] |
| < 1 | > 10 | > 10 | Cc1oc(C(=O)O)cc1CSc1ccc(-c2ccc(OC(F)F)cc2)cc1 [Compound 153, 4-(4′-Difluoromethoxy-biphenyl-4-ylsulphanylmethyl)-5-methyl-furan-2-carboxylic acid] |
| < 1 | > 10 | > 3.16 | Cc1oc(C(=O)O)cc1COc1ccc(-c2cccc(F)c2)cc1 [Compound 104, 4-(3′-Fluoro-biphenyl-4-yloxymethyl)-5-methyl-furan-2-carboxylic acid] |
| < 3.16 | > 10 | > 10 | COc1ccc(-c2cccc(OCc3cc(C(=O)O)oc3C)c2)cc1OC [Compound 108, 4-(3′,4′-Dimethoxy-biphenyl-3-yloxymethyl)-5-methyl-furan-2-carboxylic acid] |
| < 10 | > 10 | > 10 | Cc1oc(C(=O)O)cc1COc1ccc(-c2ccc(N(C)C)cc2)cc1 [Compound 113, 4-(4′-Dimethylamino-biphenyl-4-yloxymethyl)-5-methyl-furan-2-carboxylic acid] |
| < 3.16 | > 10 | > 10 | Cc1oc(C(=O)NS(=O)(=O)c2ccccc2)cc1COc1ccc(-c2ncccn2)cc1 [Compound 138, N-[5-Methyl-4-(4-pyrimidin-2-yl-phenoxymethyl)-furan-2-carbonyl]-benzenesulphonamide] |
| < 0.1 | > 10 | > 10 | Cc1oc(-c2nnn[nH]2)cc1COc1ccc(-c2ccccc2)cc1 [Compound 149, 5-[4-(Biphenyl-4-yloxymethyl)-5-methyl-furan-2-yl]-1H-tetrazole] |
| < 3.16 | > 10 | > 10 | Cc1oc(C(=O)O)cc1COc1cccc(-c2cccc(C(F)(F)F)c2)c1 [Compound 109, 5-Methyl-4-(3′-trifluoromethyl-biphenyl-3-yloxymethyl)-furan-2-carboxylic acid] |
| < 1 | > 10 | > 10 | COc1ccc(-c2ccc(OCc3cc(C(=O)O)oc3C)cc2)c(C)c1 [Compound 144, 4-(4′-Methoxy-2′-methyl-biphenyl-4-yloxymethyl)-5-methyl-furan-2-carboxylic acid] |
| < 3.16 | > 10 | > 10 | Cc1oc(C(=O)O)cc1COc1ccc(-c2cccc(O)c2)cc1 [Compound 112, 4-(3′-Hydroxy-biphenyl-4-yloxymethyl)-5-methyl-furan-2-carboxylic acid] |
| < 3.16 | > 10 | > 3.16 | Cc1oc(C(=O)O)cc1COc1ccc2c(c1)oc1ccccc12 [Compound 50, 4-(Dibenzofuran-3-yloxymethyl)-5-methyl-furan-2-carboxylic acid] |
